Laboratory results published in patent publication US20260053794A1, “SOMATOSTATIN RECEPTOR 2 AGONISTS AND USES THEREOF” (Exelixis, Inc., priority 2022, published 2026).

Each molecule was assayed against T1, Somatostatin Receptor 2 (SSTR2) (Homo sapiens, UniProt P30874) (assay: Biochemical Assay for Activation of Somatostatin Receptor 2 (SSTR2), Cisbio HTRF cAMP assay). Details: average pEC50; HTRF cAMP assay in stably-transfected cell line expressing SSTR2; cells incubated with compounds for 1-2h.
T1 construct: expressed in transfected cells
Type: cell-based
Description: Biochemical Assay for Activation of Somatostatin Receptor 2 (SSTR2)
Agonistic activation of SSTRs leads to an […] production of intracellular cAMP levels. Cisbio's homogeneous time-resolved fluorescence (HTRF) cAMP assay was used to measure cAMP concentration in an high-throughput format. Increase in intracellular cAMP concentrations was measuring using a stably-transfected cell line expressing SSTR2. Test compounds were dissolved in DMSO. Cells were incubated with compounds for 1-2h, and subsequently competitive binding of cAMP produced due to the activation of SSTR2 by the test compounds was measured using the Cisbio cAMP Gs dynamic assay system (Perkin Elmer, Bedford, MA).
The average pEC50 was determined for the test compounds.

T1 sequence (P30874 whole entry, species assumed): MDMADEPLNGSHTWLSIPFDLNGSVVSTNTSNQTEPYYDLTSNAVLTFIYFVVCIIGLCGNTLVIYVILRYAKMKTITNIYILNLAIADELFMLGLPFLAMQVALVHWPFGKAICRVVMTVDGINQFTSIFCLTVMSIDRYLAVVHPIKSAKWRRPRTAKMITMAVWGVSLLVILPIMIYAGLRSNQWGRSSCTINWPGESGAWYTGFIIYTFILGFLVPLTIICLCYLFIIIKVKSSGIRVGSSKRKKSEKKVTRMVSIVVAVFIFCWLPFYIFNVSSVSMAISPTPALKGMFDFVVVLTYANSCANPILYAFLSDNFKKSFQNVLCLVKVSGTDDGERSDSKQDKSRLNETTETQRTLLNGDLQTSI

| SMILES | EC50 [nM] |
| --- | --- |
| O=C1NCCNC2CCN(CC2)c2c(-c3cc(F)cc(F)c3)cnc3ccc(cc23)-c2cccc1n2 [Compound 78, 23-(3,5-difluorophenyl)-4,7-diaza-2(6,4)-quinolina-1(2,6)-pyridina-3(1.4)-piperidina-cyclooctaphan-8-one] | 2510 |
| O=C1NCCNC2CCN(CC2)c2c(-c3cc(F)cc(F)c3)cnc3ccc(cc23)-c2cccnc21 [Compound 79, 2^3-(3,5-difluorophenyl)-4,7-diaza-2(6,4)-quinolina-1(3,2)-pyridina-3(1,4)-piperidinacyclooctaphan-8-one] | > 10000 |
| CN1CCCCNC2CCN(CC2)c2c(-c3cc(F)cc(F)c3)cnc3ccc(cc23)-c2cccc(c2)C1=O [Compound 81, 23-(3,5-difluorophenyl)-5-methyl-5, 10-diaza-2(4, 6)-quinolina-1(1, 4)-piperidina-3(1,3)-benzenacyclodecaphan-4-one] | 2000 |
| O=C1NCCCCNC2CCN(CC2)c2c(-c3cc(F)cc(F)c3)cnc3ccc(cc23)-c2cccnc21 [Compound 84] | > 10000 |
| CN1CCCCNC2CCN(CC2)c2c(-c3cc(F)cc(F)c3)cnc3ccc(cc23)-c2cccnc2C1=O [Compound 85] | 6310 |
| Cc1cc(F)cc(-c2cnc3ccc4cc3c2N2CCC(CC2)NCCCNC(=O)c2ccccc2-4)c1 [Compound 86] | 6310 |
| N#Cc1cccc2c1OCCC(CO)NC1CCN(CC1)c1c(-c3cc(F)cc(F)c3)cnc3ccc-2cc13 (centres unmarked) [Compound 92] | > 10000 |
| NCCCn1c(=O)n2c3ccccc3cc2c2cncc(-c3cc(F)cc(F)c3)c21 [Compound 105, 5-(3-aminopropyl)-4-(3,5-difluorophenyl)pyrido[4′,3′:4,5]pyrimido [1,6-a]indol-6(5H)-one] | > 10000 |
| CNCCCn1c(=O)n2c3cc(F)c(F)cc3nc2c2cncc(-c3cc(F)cc(F)c3)c21 [Compound 106, 4-(3,5-difluorophenyl)-9,10-difluoro-5-(3-(methylamino)propyl) benzo[4,5]imidazo[1,2-c]pyrido[3,4-e]pyrimidin-6(5H)-one] | 2000 |
| Cc1cc(F)cc(-c2cnc3c(c2N2CCC(N)CC2)-c2nc4cc(F)c(F)cc4n2CC3)c1 [Compound 107, 1-(9,10-difluoro-2-(3-fluoro-5-methylphenyl)-5,6-dihydrobenzo [4,5]imidazo[2,1-f][1,6]naphthyridin-1-yl)piperidin-4-amine] | > 79.4 |
| N[C@@H]1CCN(c2c(-c3cc(F)cc(F)c3)cnc3c2C(=O)N(c2ccc(F)c(F)c2)CC3)C1 [Compound 113] | > 10000 |
| N[C@H]1CCN(c2c(-c3cc(F)cc(F)c3)cnc3c2C(=O)N(c2ccc(F)c(F)c2)CC3)C1 [Compound 114] | > 10000 |
| Cc1cc(C)cc(-c2cnc3c(c2N2CC[C@@H](N)C2)C(=O)N(c2cc(C)cc(C)c2)CC3)c1 [Compound 115] | 1000 |
| Cc1cc(C)cc(-c2cnc3c(c2N2CC[C@H](N)C2)C(=O)N(c2cc(C)cc(C)c2)CC3)c1 [Compound 116] | 1260 |
| CNCCCNc1c(C(=O)Nc2ccc(F)c(F)c2)cncc1-c1cc(F)cc(F)c1 [Compound 117] | 2000 |
| CNCCCn1c(=O)n(-c2ccc(F)c(F)c2)c(=O)c2cncc(-c3cc(F)cc(F)c3)c21 [Compound 118] | > 10000 |
| NC1CCN(c2c(-c3nc4cc(F)c(F)cc4[nH]3)cnc3ncc4ccc(F)cc4c23)CC1 [Compound 120] | 6310 |
| NC1CCN(c2c(-c3nc4cc(F)c(F)cc4[nH]3)cnc3c2-c2cc(F)ccc2CO3)CC1 [Compound 121, 1-(2-(5,6-difluoro-1H-benzo[d]imidazol-2-yl)-9-fluoro-6H-isochromeno[3,4-b]pyridin-1-yl)piperidin-4-amine] | 631 |
| N#Cc1cccc(-c2ccc3ncc(-c4cc(F)cc(F)c4)c(-c4ccc(N)cc4)c3c2)c1O [Compound 122, 3-(4-(4-aminophenyl)-3-(3,5-difluorophenyl)quinolin-6-yl)-2-hydroxy benzonitrile] | > 10000 |
| N#Cc1cccc(-c2ccc3ncc(-c4cc(F)cc(F)c4)c(-c4ccc(N)cn4)c3c2)c1O [Compound 123] | > 10000 |

Second part, the molecule after the results:

| EC50 [nM] | SMILES |
| --- | --- |
| 6.31 | O=C1NCCCNC2CCN(CC2)c2c(-c3cc(F)cc(F)c3)cnc3ccc(cc23)-c2cccc1n2 [Compound 80] |
| 25.1 | CN1CCCCNC2CCN(CC2)c2c(-c3cc(F)cc(F)c3)cnc3ccc(cc23)-c2cccc(n2)C1=O [Compound 82, 24-(3,5-difluorophenyl)-11-methyl-2,6,11,22,27-pentaazapentacyclo[16.6.2.2^2,^5.1^13,^17.0^21,^25]nonacosa-1(24),13(27),14,16,18(26),19,21(25),22-octaen-12-one] |
| 0.251 | Cc1cc(F)cc(-c2cnc3ccc4cc3c2N2CCC(CC2)NCCNC(=O)Oc2ccccc2-4)c1 [Compound 87, 23-(3-fluoro-5-methylphenyl)-4-oxa-6,9-diaza-2(4,6)-quinolina-1(1,4)-piperidina-3(1,2)-benzenacyclononaphan-5-one] |
| 158 | N#Cc1cccc2c1NCCCNC1CCN(CC1)c1c(-c3cc(F)cc(F)c3)cnc3ccc-2cc13 [Compound 93] |
| 158 | Cc1cc(F)cc(-c2cnc3ccc4cc3c2N2CCC(CC2)NCC(N=[N+]=[N-])CCOc2c(C#N)cccc2-4)c1 (centres unmarked) [Compound 94, 7-azido-23-(3-fluoro-5-methylphenyl)-4-oxa-9-aza-2(4.6)-quinolina-1(1.4)-piperidina-3(1,2)-benzenacyclononaphane-33-carbonitrile] |
| 7.94 | Cc1cc(F)cc(-c2cnc3ccc4cc3c2N2CCC(CC2)NCC(N)CCOc2c(C#N)cccc2-4)c1 (centres unmarked) [Compound 95, 7-amino-23-(3-fluoro-5-methylphenyl)-4-oxa-9-aza-2(4,6)-quinolina-1(1,4)-piperidina-3(1.2)-benzenacyclononaphane-33-carbonitrile] |
| 0.0794 | Cc1cc(F)cc(-c2cnc(Cl)c(-c3nc4cc(F)c(F)cc4[nH]3)c2N2CCC(N)CC2)c1 [Compound 104, 1-(2-chloro-3-(5,6-difluoro-1H-benzo[d]imidazol-2-yl)-5-(3-fluoro-5-methylphenyl)pyridin-4-yl)piperidin-4-amine] |
| 126 | NCCCN1Cc2ccc(F)cc2-c2cncc(-c3nc4cc(F)c(F)cc4[nH]3)c21 [Compound 108] |
| 200 | CC(N)CCN1Cc2ccc(F)cc2-c2cncc(C(=O)Nc3ccc(F)c(F)c3)c21 (centres unmarked) [Compound 109, 5-(3-aminobutyl)-N-(3,4-difluorophenyl)-9-fluoro-6H-benzo [c][1,6]naphthyridine-4-carboxamide] |
| 158 | NC1CCN(c2c(-c3cc(F)cc(F)c3)cnc3c2C(=O)N(c2ccc(F)c(F)c2)CC3)CC1 [Compound 110] |
| 15.8 | Cc1cc(F)cc(-c2cnc3c(c2N2CCC(N)CC2)C(=O)N(c2ccc(F)c(F)c2)CC3)c1 [Compound 111] |
| 25.1 | Cc1cc(C)cc(-c2cnc3c(c2N2CCC(N)CC2)C(=O)N(c2ccc(F)c(F)c2)CC3)c1 [Compound 112] |
| 0.0501 | Cc1cc(F)cc(-c2cncc(N3Cc4ccccc4C3)c2N2CCC(N)CC2)c1 [Compound 119] |
| 5.01 | N#Cc1cccc(-c2ccc3ncc(-c4cc(F)cc(F)c4)c(C4=CCC(N)CC4)c3c2)c1O (centres unmarked) [Compound 125] |
| 251 | N#Cc1cccc(-c2cc3ncc(-c4cc(F)cc(F)c4)c(N4CCC(N)CC4)c3o2)c1O [Compound 127, 3-(7-(4-aminopiperidin-1-yl)-6-(3,5-difluorophenyl)furo[3,2-b]pyridine-2-yl)-2-hydroxybenzonitrile] |
